Laboratory results taken from US20040023974A1, “Cyclic sulfamide derivatives and methods of use” (priority 2002, published 2004).
Where a name gives a salt, the structure may show the parent alone.

SMILES | melting point
COc1ccc(N2CC(=O)NS2(=O)=O)c(OC)c1.[K] | > 260 °C
CCn1c(C)nc2cc(CN3CC(=O)NS3(=O)=O)ccc21 (as salt: TFA) [Example 11, 5-(1-Ethyl-2-methyl-1H-benzoimidazol-5-ylmethyl)-1,1-dioxo-1-1,2,5-thiadiazolidin-3-one] | 255 to 265 °C
O=C1CN(Cc2cccc(I)c2)S(=O)(=O)N1 [Example 4, 5-(3-Iodobenzyl)-1,1-dioxo-1,2,5-thiadiazolidin-3-one] | 101 to 103 °C
CCOC(=O)C(Cc1ccc(CN2CC(=O)NS2(=O)=O)cc1)(NC(C)=O)C(=O)OCC [Example 10-23, 2-Acetylamino-2-[4-(1,1,4-trioxo-1,2,5-thiadiazolidin-2-ylmethyl)-benzyl]-malonic acid diethyl ester] | 197 °C
Cc1nc2cc(CN3CC(=O)NS3(=O)=O)ccc2n1CCC(C)C [Example 12, 5-[2-Methyl-1-(3-methyl-butyl)-1H-benzoimidazol-5-ylmethyl]-1,1-dioxo-1-1,2,5-thiadiazolidin-3-one] | 70 to 75 °C
Cc1cc(OCC(=O)NCc2ccccc2)ccc1N1CC(=O)NS1(=O)=O [Example 43, N-Benzyl-2-[3-methyl-4-(1,1,4-trioxo-[1,2,5]thiadiazolidin-2-yl)-phenoxy]-acetamide] | 70 to 90 °C
O=C1CN(c2ccc(CC3NC(=O)c4ccccc4NC3=O)cc2O)S(=O)(=O)N1 (centres unmarked) [Example 44, 3-[3-Hydroxy-4-(1,1,4-trioxo-[1,2,5]thiadiazolidin-2-yl)-benzyl]-3,4-dihydro-1H-benzo[1,4]diazepine-2,5-dione] | 180 °C
O=C1CN(c2ccc(I)cc2)S(=O)(=O)N1 [Example 45, 5-(4-Iodo-phenyl)-1,1-dioxo-1,2,5-thiadiazolidin-3-one] | 191 to 193 °C
